Measurements as given in patent US7034070B2, “Arylalkyl aminofunctional silanes for epoxy laminates” (priority 2002, dated 2006).

Experiment: Water solubility test (aqueous solution clarity and stability)
Format: physicochemical
Conditions: for time the solution stayed clear (before turning hazy): 1.0 gram in 100 ml distilled water with 1% glacial acetic acid, ambient temperatures; for time until the slightly hazy solution turned clear: 1.0 gram sample in 100 ml distilled water acidified with 1% glacial acetic acid, stirring
Description: With stirring, 1.0 gram sample from Example 1 was added gradually to 100 ml of distilled water acidified with 1% glacial acetic acid. The solution was slightly hazy at the beginning but turned clear after 45 min. while the commercial product Z-6032 (Dow Coming) under similar conditions turned clear in 20 min.

Compound | time the solution stayed clear (before turning hazy) | time until the slightly hazy solution turned clear [min]
C=Cc1ccc(CNCCNCCC[Si](OC)(OC)OC)cc1.Cl [Example Z-6032, CH2═CHC6H4CH2NH(CH2)2NH(CH2)3Si(OCH3)3•HCl] | less than 1 week | 20
CH3CH2C6H4CH2NH(CH2)2NH(CH2)3Si(OCH3)3•HCl [Example 1] | more than two weeks | 45
